Active and inactive are the calls of the source. The calls are words filed in the database; no cut-off is given here.

The source of these data is ChEMBL document CHEMBL3763136, “Synthesis and neuroprotective activity of dictyoquinazol A and analogues” (Bioorg Med Chem, 2016).

Data set [1] has as its system SH-SY5Y. The data set is described as follows: Neuroprotective activity against L-glutamate-induced excitotoxicity in human SH-SY5Y cells assessed as increase in cell viability after 20 hrs by MTT assay. It is filed as functional, cell-based.
Data set [2] deals with SH-SY5Y. The data set is described as follows: Neuroprotective activity against H2O2-induced oxidative stress in human SH-SY5Y cells assessed as increase in cell viability after 20 hrs by MTT assay. In kind it is functional, cell-based.
For data set [3], the system named is SH-SY5Y. The data set is described as follows: Neuroprotective activity against staurosporine-induced apoptosis in human SH-SY5Y cells assessed as increase in cell viability after 20 hrs by MTT assay. In kind it is functional, cell-based.
Data set [4] concerns SH-SY5Y. The data set is described as follows: Cytotoxicity against human SH-SY5Y cells assessed as cell viability at 0.3 to 3 uM after 24 hrs by MTT assay. It is filed as cell-based.
Data set [5] concerns SH-SY5Y. The data set is described as follows: Cytotoxicity against human SH-SY5Y cells assessed as cell viability up to 3 uM after 24 hrs by MTT assay. It is filed as cell-based. Background: Tetrazolium dyes change colour on reduction, which living cells bring about.
In data set [6] the test system is SH-SY5Y. As to the kind of experiment: Cytotoxicity against human SH-SY5Y cells assessed as cell viability above 10 uM after 24 hrs by MTT assay. It is filed as cell-based.
Data set [7] deals with SH-SY5Y. As to the kind of experiment: Neuroprotective activity against L-glutamate-induced excitotoxicity in human SH-SY5Y cells assessed as increase in cell viability at 0.3 uM after 20 hrs by MTT assay. It is filed as functional.
For data set [8], the system named is SH-SY5Y. The data set is described as follows: Neuroprotective activity against staurosporine-induced apoptosis in human SH-SY5Y cells assessed as increase in cell viability at 0.3 uM after 20 hrs by MTT assay. It is filed as functional.
The subject of data set [9] is SH-SY5Y. As to the kind of experiment: Neuroprotective activity against H2O2-induced oxidative stress in human SH-SY5Y cells assessed as increase in cell viability at 0.6 to 1.2 uM after 20 hrs by MTT assay. In kind it is functional.
For data set [10], the system named is SH-SY5Y. As to the kind of experiment: Neuroprotective activity against L-glutamate-induced excitotoxicity in human SH-SY5Y cells assessed as increase in cell viability at 0.6 uM after 20 hrs by MTT assay. It is filed as functional.

For the compound `COc1ccc(-n2c(=O)[nH]c3ccc(OC)cc3c2=O)c(CO)c1`, the outcome with SH-SY5Y [1], in the data set on SH-SY5Y [2] and in the data set with SH-SY5Y [3] was Active. Moreover, the Activity result in the data set on SH-SY5Y [4] is on record as “Non-toxic”.

For `COc1ccc(-n2cnc3ccc(OC)cc3c2=O)c(COC=O)c1`, the Activity entry is on record as “Non-toxic” in the data set on SH-SY5Y [5] and “Toxic” with SH-SY5Y [6].

For the compound `COc1ccc(-n2cnc3ccc(OC)cc3c2=O)cc1`, the outcome in the data set on SH-SY5Y [1], in the data set on SH-SY5Y [2] and with SH-SY5Y [3] was Active. Further, the Activity entry in the data set with SH-SY5Y [4] is given as “Non-toxic”.

For the compound `COc1ccc(-n2cnc3ccc(OC)cc3c2=O)c(CF)c1`, the result in the data set with SH-SY5Y [1] and in the data set on SH-SY5Y [3] was Active. Besides, the result in the data set with SH-SY5Y [2] was inactive. Further, the Activity result in the data set with SH-SY5Y [5] is reported as “Non-toxic”; in the data set on SH-SY5Y [6], “Toxic”.

Consider `COc1ccc(-n2c(=S)[nH]c3ccc(OC)cc3c2=O)c(CO)c1`, for which the result in the data set on SH-SY5Y [1] and in the data set on SH-SY5Y [2] was Active. In the data set on SH-SY5Y [3], the result was inactive. For the same compound, the Activity result in the data set with SH-SY5Y [4] was “Non-toxic”.

`COc1ccc(-n2cnc3ccc(OC)cc3c2=O)c(CO)c1` [DICTYOQUINAZOLE A]: the “%max” value with SH-SY5Y [7] is given as 10%; with SH-SY5Y [9] it was 22%. Also, the Activity in the data set with SH-SY5Y [8] is recorded as 41%; in the data set on SH-SY5Y [5] it was “Non-toxic”; with SH-SY5Y [6] it was “Toxic”.

In the case of `O=c1c2ccccc2ncn1-c1ccccc1CO`, the Activity with SH-SY5Y [10] is reported as 35%; in the data set on SH-SY5Y [5], “Non-toxic”; in the data set with SH-SY5Y [6], “Toxic”. Further, the outcome in the data set with SH-SY5Y [2] was inactive. Besides, the result in the data set with SH-SY5Y [3] was Active.

For the compound `COC(=O)c1cc(OC)ccc1-n1cnc2ccc(OC)cc2c1=O`, the result in the data set on SH-SY5Y [1], in the data set with SH-SY5Y [2] and with SH-SY5Y [3] was Active. Moreover, the Activity result with SH-SY5Y [4] was “Non-toxic”.
